Measurements: ChEMBL document CHEMBL1155497, “Double stranded DNA discrimination by di-pyrene modified gamma-cyclodextrin” (Bioorg Med Chem Lett, 2010)
Blank lines part the entries; values can stand above or below the compound they belong to. The source made the active and inactive calls. The rule behind the calls is not given here.

Key:
Type in all cases: nucleic-acid assay
Nucleic Acid [1] = test: Binding affinity to double strand DNA assessed as increase in fluorescence intensity at 0.1 uM by fluorescence spectroscopy technique
Nucleic Acid [2] = test: Binding affinity to single strand DNA assessed as increase in fluorescence intensity at 0.1 uM by fluorescence spectroscopy technique
Nucleic Acid [3] = test: Binding affinity to double strand DNA assessed as increase in fluorescence intensity at 0.6 uM by fluorescence spectroscopy technique
Nucleic Acid [4] = test: Binding affinity to single strand DNA assessed as increase in fluorescence intensity at 0.6 uM by fluorescence spectroscopy technique
Nucleic Acid [5] = test: Binding affinity to double strand DNA assessed as increase in fluorescence intensity by fluorescence spectroscopy technique
Nucleic Acid [6] = test: Binding affinity to single strand DNA assessed as increase in fluorescence intensity using 0.00075 uM of DNA by fluorescence spectroscopy technique
Nucleic Acid [7] = test: Binding affinity to single strand DNA assessed as increase in fluorescence intensity using > 0.00075 uM of DNA by fluorescence spectroscopy technique
Nucleic Acid [8] = test: Binding affinity to double strand DNA assessed as increase in fluorescence intensity using 0.00075 uM of DNA at 0.3 uM by fluorescence spectroscopy technique
Nucleic Acid [9] = test: Binding affinity to single strand DNA assessed as increase in fluorescence intensity at 0.3 uM by fluorescence spectroscopy technique
Nucleic Acid [10] = test: Binding affinity to double strand DNA assessed as increase in fluorescence intensity using > 0.00075 uM of DNA at 0.3 uM by fluorescence spectroscopy technique

Activity (Nucleic Acid [1]): inactive
Activity (Nucleic Acid [2]): inactive
Activity (Nucleic Acid [3]): inactive
Activity (Nucleic Acid [4]): inactive
Structure (SMILES): O=C(CSC[C@H]1O[C@@H]2O[C@@H]3[C@@H](CO)C[C@H](O[C@H]4[C@H](O)[C@@H](O)[C@@H](O[C@H]5[C@H](O)[C@@H](O)[C@@H](O[C@H]6[C@H](O)[C@@H](O)[C@@H](O[C@H]7[C@H](O)[C@@H](O)[C@@H](O[C@H]8[C@H](O)[C@@H](O)[C@@H](O[C@H]9[C@H](O)[C@@H](O)[C@@H](O[C@H]1[C@H](O)[C@H]2O)O[C@@H]9CO)O[C@@H]8CSCC(=O)NCCOCCOCCOCc1ccc2ccc8cccc9ccc1c2c89)O[C@@H]7CO)O[C@@H]6CO)O[C@@H]5CO)O[C@@H]4CO)[C@H](O)[C@H]3O)NCCOCCOCCOCc1ccc2ccc3cccc4ccc1c2c34

Activity (Nucleic Acid [5]): Active
Activity (Nucleic Acid [6]): Active
Activity (Nucleic Acid [7]): Active
Structure (SMILES): CCCN(CCCN(C)C)C1=CC(Cc2sc3ccccc3[n+]2C)c2ccccc2N1c1ccccc1 (stereo not given)

Activity (Nucleic Acid [8]): Active
Activity (Nucleic Acid [9]): inactive
Activity (Nucleic Acid [10]): inactive
Structure (SMILES): O=C(NCCOCCOCCOCc1ccc2ccc3cccc4ccc1c2c34)SC[C@H]1O[C@@H]2O[C@H]3[C@H](O)[C@@H](O)[C@@H](O[C@H]4[C@H](O)[C@@H](O)[C@@H](O[C@@H]5[C@@H](CO)C[C@H](O[C@H]6[C@H](O)[C@@H](O)[C@@H](O[C@H]7[C@H](O)[C@@H](O)[C@@H](O[C@H]8[C@H](O)[C@@H](O)[C@@H](O[C@H]9[C@H](O)[C@@H](O)[C@@H](O[C@H]1[C@H](O)[C@H]2O)O[C@@H]9CO)O[C@@H]8CO)O[C@@H]7CO)O[C@@H]6CSC(=O)NCCOCCOCCOCc1ccc2ccc6cccc7ccc1c2c67)[C@H](O)[C@H]5O)O[C@@H]4CO)O[C@@H]3CO
